Patent publication US12351580B2, “NLRP3 modulators” (Innate Tumor Immunity, Inc., priority 2017, dated 2025)

How the values were obtained:
TLR7 = target: T1, TLR7 (Homo sapiens, UniProt Q9NYK1); experiment: In vitro human TLR7 binding reporter assay (HEK-Blue, NF-kB/AP1-inducible SEAP); format: cell-based; conditions: activity range symbols
T1 construct: host or cells: HEK-Blue cells (human HEK) co-expressing TLR7 and an NF-kB/AP1-inducible SEAP reporter
T1 sequence (Q9NYK1 27-1049): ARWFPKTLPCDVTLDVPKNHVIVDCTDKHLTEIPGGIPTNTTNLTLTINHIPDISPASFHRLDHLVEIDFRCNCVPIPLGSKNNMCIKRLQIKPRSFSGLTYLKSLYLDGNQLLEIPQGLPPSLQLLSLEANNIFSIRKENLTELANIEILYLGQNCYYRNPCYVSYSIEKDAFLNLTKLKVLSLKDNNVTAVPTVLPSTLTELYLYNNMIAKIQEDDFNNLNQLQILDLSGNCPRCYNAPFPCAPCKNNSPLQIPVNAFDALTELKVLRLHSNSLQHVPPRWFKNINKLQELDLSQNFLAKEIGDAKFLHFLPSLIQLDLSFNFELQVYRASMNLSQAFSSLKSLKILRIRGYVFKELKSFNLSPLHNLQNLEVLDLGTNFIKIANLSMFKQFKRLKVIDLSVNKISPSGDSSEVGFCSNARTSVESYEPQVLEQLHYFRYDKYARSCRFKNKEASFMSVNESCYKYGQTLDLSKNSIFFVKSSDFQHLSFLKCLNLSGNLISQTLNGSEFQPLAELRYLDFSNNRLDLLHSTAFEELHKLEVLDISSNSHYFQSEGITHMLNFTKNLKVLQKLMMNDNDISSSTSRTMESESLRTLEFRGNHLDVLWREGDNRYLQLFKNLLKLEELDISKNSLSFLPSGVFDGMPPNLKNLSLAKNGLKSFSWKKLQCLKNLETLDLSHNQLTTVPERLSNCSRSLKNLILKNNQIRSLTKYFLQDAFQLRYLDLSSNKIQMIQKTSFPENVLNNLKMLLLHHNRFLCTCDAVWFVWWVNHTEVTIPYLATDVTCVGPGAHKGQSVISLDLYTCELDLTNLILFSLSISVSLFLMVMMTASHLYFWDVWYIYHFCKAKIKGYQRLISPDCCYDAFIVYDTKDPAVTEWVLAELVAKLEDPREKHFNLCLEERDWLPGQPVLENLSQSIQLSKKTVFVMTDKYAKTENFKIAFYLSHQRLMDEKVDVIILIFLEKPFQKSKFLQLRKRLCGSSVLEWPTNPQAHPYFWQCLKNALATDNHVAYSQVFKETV
How it was run: (§1)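 Reporter cells are plated at 15,000 per well and rested 24 h. Next day, test compounds or DMSO are dispensed, followed by 18 h incubation at 37 °C, 5% CO2.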

TLR8 = target: T2, TLR8 (Homo sapiens, UniProt Q9NR97); experiment: In vitro human TLR8 binding reporter assay (HEK-Blue, NF-kB/AP1-inducible SEAP); format: cell-based; conditions: activity range symbols
T2 construct: host or cells: HEK-Blue cells (human HEK) co-expressing TLR8 and an NF-kB/AP1-inducible SEAP reporter
T2 sequence (Q9NR97 27-1041): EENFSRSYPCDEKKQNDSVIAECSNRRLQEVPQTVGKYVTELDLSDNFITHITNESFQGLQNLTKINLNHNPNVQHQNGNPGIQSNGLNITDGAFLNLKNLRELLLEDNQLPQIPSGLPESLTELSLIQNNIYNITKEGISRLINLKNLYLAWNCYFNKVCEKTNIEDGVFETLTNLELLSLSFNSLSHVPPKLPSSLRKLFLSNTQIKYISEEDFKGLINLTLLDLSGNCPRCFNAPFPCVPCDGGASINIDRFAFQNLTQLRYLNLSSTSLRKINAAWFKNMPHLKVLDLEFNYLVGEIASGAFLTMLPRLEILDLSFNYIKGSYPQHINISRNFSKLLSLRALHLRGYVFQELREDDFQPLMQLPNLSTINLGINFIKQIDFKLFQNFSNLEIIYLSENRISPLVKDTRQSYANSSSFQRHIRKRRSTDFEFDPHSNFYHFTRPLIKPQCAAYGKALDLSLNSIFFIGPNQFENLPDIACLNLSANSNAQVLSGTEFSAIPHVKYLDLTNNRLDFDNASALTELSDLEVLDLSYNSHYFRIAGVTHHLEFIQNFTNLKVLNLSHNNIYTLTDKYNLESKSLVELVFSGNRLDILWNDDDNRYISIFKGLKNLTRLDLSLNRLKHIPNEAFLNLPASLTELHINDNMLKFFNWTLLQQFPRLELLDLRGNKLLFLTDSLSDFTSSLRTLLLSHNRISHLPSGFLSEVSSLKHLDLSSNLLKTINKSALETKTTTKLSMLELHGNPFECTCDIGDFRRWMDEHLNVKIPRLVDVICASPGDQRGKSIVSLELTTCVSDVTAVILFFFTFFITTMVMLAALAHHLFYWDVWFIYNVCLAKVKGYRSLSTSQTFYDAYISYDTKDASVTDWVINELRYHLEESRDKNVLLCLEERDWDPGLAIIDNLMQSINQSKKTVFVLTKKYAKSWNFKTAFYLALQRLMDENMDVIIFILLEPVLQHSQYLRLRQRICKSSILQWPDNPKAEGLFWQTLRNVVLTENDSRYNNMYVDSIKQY
How it was run: as §1

Row | SMILES | EC50 (TLR7) [µM] | EC50 (TLR8) [µM]
1 | CCN(Cc1nc2c(N)nc3cc(-n4cccn4)ccc3c2n1CCO)C(C)=O [Compound 476, N-{[4-amino-1-(2-hydroxyethyl)-7-(1H-pyrazol-1-yl)-1H-imidazo[4,5-c]quinolin-2-yl]methyl}-N-ethylacetamide] | > 100 | > 100
2 | CCN(Cc1nc2c(N)nc3cc(-c4cc[nH]n4)ccc3c2[nH]1)C(=O)N1CCOCC1 [Compound 455, N-{[4-amino-7-(1H-pyrazol-3-yl)-1H-imidazo[4,5-c]quinolin-2-yl]methyl}-N-ethylmorpholine-4-carboxamide] | > 100 | > 100
3 | CCC(=O)N(CC)Cc1nc2c(N)nc3cc(-n4cccn4)ccc3c2n1CCO [Compound 478, N-{[4-amino-1-(2-hydroxyethyl)-7-(1H-pyrazol-1-yl)-1H-imidazo[4,5-c]quinolin-2-yl]methyl}-N-ethylpropanamide] | > 100 | > 100
4 | CCNCc1nc2c(N)nc3cc(-c4ccn[nH]4)ccc3c2n1CCO [Compound 462, 2-[4-Amino-2-[(ethylamino)methyl]-7-(1H-pyrazol-5-yl)-1H-imidazo[4,5-c]quinolin-1-yl]ethan-1-ol] | > 100 | > 100
5 | Nc1nc2cc(-n3ncc4ccccc43)ccc2c2[nH]c(CN3CCCC3=O)nc12 [Compound 157] | 20 to 100 | 20 to 100
6 | Nc1nc2cc(Cl)ccc2c2[nH]c(CN3CCCC3=O)nc12 [Compound 143] | 20 to 100 | > 100
7 | CCN(Cc1nc2c(N)nc3cc(-c4cc[nH]n4)ccc3c2[nH]1)S(=O)(=O)N(C)C [Compound 458, 2-{[(dimethylsulfamoyl)(ethyl)amino]methyl}-7-(1H-pyrazol-3-yl)-1H-imidazo[4,5-c]quinolin-4-amine] | > 100 | > 100
8 | CCN(Cc1nc2c(N)nc3cc(-n4cccn4)ccc3c2[nH]1)C(N)=O [Compound 130] | > 100 | > 100
9 | CCN(Cc1nc2c(N)nc3cc(-c4ncc[nH]4)ccc3c2[nH]1)C(=O)OC(C)(C)C [Compound 155] | > 100 | > 100
10 | CCN(Cc1nc2c(N)nc3cc(-c4cc[nH]n4)ccc3c2[nH]1)S(=O)(=O)C(C)C [Compound 459, N-{[4-amino-7-(1H-pyrazol-3-yl)-1H-imidazo[4,5-c]quinolin-2-yl]methyl}-N-ethylpropane-2-sulfonamide] | > 100 | > 100
11 | CCNCc1nc2c(N)nc3cc(-n4cccn4)ccc3c2n1CCO [Compound 477, 2-[4-amino-2-[(ethylamino)methyl]-7-(1H-pyrazol-1-yl)-1H-imidazo[4,5-c]quinolin-l-yl]ethan-1-ol] | > 100 | > 100
12 | CCC(=O)N(CC)Cc1nc2c(N)nc3cc(-c4cccs4)ccc3c2n1CCO [Compound 470, N-{[4-amino-1-(2-hydroxyethyl)-7-(thiophen-2-yl)-1H-imidazo[4,5-c]quinolin-2-yl]methyl}-N-ethylpropanamide] | > 100 | > 100
13 | CCNCc1nc2c(N)nc3cc(-n4cccn4)ccc3c2n1CC [Compound 467, 1-ethyl-2-((ethylamino)methyl)-7-(1H-pyrazol-1-yl)-1H-imidazo[4,5-c]quinolin-4-amine] | > 100 | > 100
14 | CC(=O)N(Cc1nc2c(N)nc3cc(-c4cc[nH]n4)ccc3c2[nH]1)C(C)C [Compound 140] | > 100 | > 100
15 | CCn1c(CN2CCCC2=O)nc2c(N)nc3cc(-n4cccn4)ccc3c21 [Compound 465, 1-{[4-amino-1-ethyl-7-(1H-pyrazol-1-yl)-1H-imidazo[4,5-c]quinolin-2-yl]methyl}pyrrolidin-2-one] | > 100 | > 100
16 | CCN(CC)C(=O)N(CC)Cc1nc2c(N)nc3cc(-c4cc[nH]n4)ccc3c2[nH]1 [Compound 454, 1-{[4-amino-7-(1H-pyrazol-3-yl)-1H-imidazo[4,5-c]quinolin-2-yl]methyl}-1,3,3-triethylurea] | > 100 | > 100
17 | CCN(Cc1nc2c(N)nc3cc(-c4cc[nH]n4)ccc3c2[nH]1)C(=O)NC(C)(C)C [Compound 456, 1-{[4-amino-7-(1H-pyrazol-3-yl)-1H-imidazo[4,5-c]quinolin-2-yl]methyl}-3-tert-butyl-1-ethylurea] | > 100 | > 100
18 | CC(=O)N(C)Cc1nc2c(N)nc3cc(-c4cc[nH]n4)ccc3c2[nH]1 [Compound 129] | > 100 | > 100
19 | CCNCc1nc2c(N)nc3cc(-c4ncc[nH]4)ccc3c2[nH]1 [Compound 162] | > 100 | > 100
20 | CC(c1nc2c(N)nc3cc(-c4cccnc4)ccc3c2[nH]1)N1CCCC1=O (stereo not shown) [Compound 138] | 20 to 100 | > 100
21 | CCN(Cc1nc2c(N)nc3cc(-n4nccn4)ccc3c2[nH]1)C(C)=O [Compound 132] | > 100 | > 100
22 | CCN(Cc1nc2c(N)nc3cc(OC)ccc3c2[nH]1)C(C)=O [Compound 158, N-((4-Amino-7-methoxy-1H-imidazo[4,5-c]quinolin-2-yl)methyl)-N-ethylacetamide] | > 100 | > 100
23 | CCC(=O)N(CC)Cc1nc2c(N)nc3cc(-c4cc[nH]n4)ccc3c2[nH]1 [Compound 125] | > 100 | > 100
24 | CCNCc1nc2c(N)nc3cc(-c4cccs4)ccc3c2n1CC [Compound 468, 1-ethyl-2-[(ethylamino)methyl]-7-(thiophen-2-yl)-1H-imidazo[4,5-c]quinolin-4-amine] | > 100 | > 100
25 | CCC(=O)N(CC)Cc1nc2c(N)nc3cc(-n4cccn4)ccc3c2n1CC [Compound 481, N-{[4-amino-1-ethyl-7-(1H-pyrazol-1-yl)-1H-imidazo[4,5-c]quinolin-2-yl]methyl}-N-ethylpropanamide] | > 100 | > 100
26 | CCN(Cc1nc2c(N)nc3cc(-c4cc[nH]n4)ccc3c2[nH]1)CC(C)C [Compound 453, 2-{[ethyl(2-methylpropyl)amino]methyl}-7-(1H-pyrazol-3-yl)-1H-imidazo[4,5-c]quinolin-4-amine] | > 100 | > 100
27 | CN(Cc1nc2c(N)nc3cc(-c4cc[nH]n4)ccc3c2[nH]1)C(=O)C1CC1 [Compound 120] | > 100 | > 100
28 | CCNC(=O)N(CC)Cc1nc2c(N)nc3cc(-c4cc[nH]n4)ccc3c2[nH]1 [Compound 457, 1-{[4-amino-7-(1H-pyrazol-3-yl)-1H-imidazo[4,5-c]quinolin-2-yl]methyl}-1,3-diethylurea] | > 100 | > 100
29 | CCNCc1nc2c(N)nc3cc(-c4ccn[nH]4)ccc3c2n1CC [Compound 464, 1-ethyl-2-[(ethylamino)methyl]-7-(1H-pyrazol-5-yl)-1H-imidazo[4,5-c]quinolin-4-amine] | > 100 | > 100
